How the values were obtained:
CNS:SF-539 = tested on: CNS:SF-539; parameters: method as in earlier work; conditions: NCI-60 panel; ref [4],[5],[6],[7]; cited from earlier work
CNS:U251 = tested on: CNS:U251; parameters: method as in earlier work; conditions: NCI-60 panel; ref [4],[5],[6],[7]; cited from earlier work
CO:HT29 = tested on: CO:HT29; parameters: method as in earlier work; conditions: NCI-60 panel; ref [4],[5],[6],[7]; cited from earlier work
LE:RPMI-8226 = tested on: LE:RPMI-8226; parameters: method as in earlier work; conditions: NCI-60 panel; ref [4],[5],[6],[7]; cited from earlier work
LE:SR = tested on: LE:SR; parameters: method as in earlier work; conditions: NCI-60 panel; ref [4],[5],[6],[7]; cited from earlier work
LC:NCI-H226 = tested on: LC:NCI-H226; parameters: method as in earlier work; conditions: NCI-60 panel; ref [4],[5],[6],[7]; cited from earlier work
LC:NCI-H522 = tested on: LC:NCI-H522; parameters: method as in earlier work; conditions: NCI-60 panel; ref [4],[5],[6],[7]; cited from earlier work
OV:IGROV1 = tested on: OV:IGROV1; parameters: method as in earlier work; conditions: NCI-60 panel; ref [4],[5],[6],[7]; cited from earlier work
ADCYAP1R1 = ADCYAP1R1 (Homo sapiens, UniProt P41586); test: gpcrMAX PathHunter beta-arrestin
ADRA1B = ADRA1B (Homo sapiens, UniProt P35368); test: gpcrMAX PathHunter beta-arrestin
ADRB1 = ADRB1 (Homo sapiens, UniProt P08588); test: gpcrMAX PathHunter beta-arrestin
ADRB2 = ADRB2 (Homo sapiens, UniProt P07550); test: gpcrMAX PathHunter beta-arrestin
AGTR1 = AGTR1 (Homo sapiens, UniProt P30556); test: gpcrMAX PathHunter beta-arrestin
C5AR1 = C5AR1 (Homo sapiens, UniProt P21730); test: gpcrMAX PathHunter beta-arrestin
CCR1 = CCR1 (Homo sapiens, UniProt P32246); test: gpcrMAX PathHunter beta-arrestin
CCR3 = CCR3 (Homo sapiens, UniProt P51677); test: gpcrMAX PathHunter beta-arrestin
CHRM3 = CHRM3 (Homo sapiens, UniProt P20309); test: gpcrMAX PathHunter beta-arrestin
CHRM4 = CHRM4 (Homo sapiens, UniProt P08173); test: gpcrMAX PathHunter beta-arrestin
CXCR3 = CXCR3 (Homo sapiens, UniProt P49682); test: gpcrMAX PathHunter beta-arrestin
DRD5 = DRD5 (Homo sapiens, UniProt P21918); test: gpcrMAX PathHunter beta-arrestin
EDG4 = EDG4 (Homo sapiens, UniProt Q9HBW0); test: gpcrMAX PathHunter beta-arrestin
EDG5 = EDG5 (Homo sapiens, UniProt O95136); test: gpcrMAX PathHunter beta-arrestin
GLP2R = GLP2R (Homo sapiens, UniProt O95838); test: gpcrMAX PathHunter beta-arrestin
GPR109B = GPR109B (Homo sapiens, UniProt P49019); test: gpcrMAX PathHunter beta-arrestin
HCRTR1 = HCRTR1 (Homo sapiens, UniProt O43613); test: gpcrMAX PathHunter beta-arrestin
HTR2A = HTR2A (Homo sapiens, UniProt P28223); test: gpcrMAX PathHunter beta-arrestin
KISS1R = KISS1R (Homo sapiens, UniProt Q969F8); test: gpcrMAX PathHunter beta-arrestin
MC5R = MC5R (Homo sapiens, UniProt P33032); test: gpcrMAX PathHunter beta-arrestin
MCHR1 = MCHR1 (Homo sapiens, UniProt Q99705); test: gpcrMAX PathHunter beta-arrestin
MLNR = MLNR (Homo sapiens, UniProt O43193); test: gpcrMAX PathHunter beta-arrestin
MRGPRX1 = MRGPRX1 (Homo sapiens, UniProt Q96LB2); test: gpcrMAX PathHunter beta-arrestin
NPBWR1 = NPBWR1 (Homo sapiens, UniProt P48145); test: gpcrMAX PathHunter beta-arrestin
NPY1R = NPY1R (Homo sapiens, UniProt P25929); test: gpcrMAX PathHunter beta-arrestin
NTSR1 = NTSR1 (Homo sapiens, UniProt P30989); test: gpcrMAX PathHunter beta-arrestin
P2RY2 = P2RY2 (Homo sapiens, UniProt P41231); test: gpcrMAX PathHunter beta-arrestin
PTAFR = PTAFR (Homo sapiens, UniProt P25105); test: gpcrMAX PathHunter beta-arrestin
PTGER3 = PTGER3 (Homo sapiens, UniProt P43115); test: gpcrMAX PathHunter beta-arrestin
PTGER4 = PTGER4 (Homo sapiens, UniProt P35408); test: gpcrMAX PathHunter beta-arrestin
PTGFR = PTGFR (Homo sapiens, UniProt P43088); test: gpcrMAX PathHunter beta-arrestin
PTHR2 = PTHR2 (Homo sapiens, UniProt P49190); test: gpcrMAX PathHunter beta-arrestin
Chain of PTHR2 (P49190 25-550): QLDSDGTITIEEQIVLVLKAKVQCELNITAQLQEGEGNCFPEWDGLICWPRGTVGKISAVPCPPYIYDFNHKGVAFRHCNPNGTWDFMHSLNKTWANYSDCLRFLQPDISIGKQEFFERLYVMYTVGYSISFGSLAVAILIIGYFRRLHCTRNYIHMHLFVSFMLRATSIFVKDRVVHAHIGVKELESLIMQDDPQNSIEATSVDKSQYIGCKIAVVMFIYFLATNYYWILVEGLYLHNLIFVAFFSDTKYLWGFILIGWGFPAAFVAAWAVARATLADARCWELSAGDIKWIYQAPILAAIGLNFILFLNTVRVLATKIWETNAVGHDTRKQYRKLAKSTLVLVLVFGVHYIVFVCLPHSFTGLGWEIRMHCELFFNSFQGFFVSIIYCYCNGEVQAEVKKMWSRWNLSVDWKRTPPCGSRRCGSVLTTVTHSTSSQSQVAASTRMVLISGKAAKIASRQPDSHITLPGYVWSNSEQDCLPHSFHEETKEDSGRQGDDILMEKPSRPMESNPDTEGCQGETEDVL

Chain of GLP2R (O95838 whole entry): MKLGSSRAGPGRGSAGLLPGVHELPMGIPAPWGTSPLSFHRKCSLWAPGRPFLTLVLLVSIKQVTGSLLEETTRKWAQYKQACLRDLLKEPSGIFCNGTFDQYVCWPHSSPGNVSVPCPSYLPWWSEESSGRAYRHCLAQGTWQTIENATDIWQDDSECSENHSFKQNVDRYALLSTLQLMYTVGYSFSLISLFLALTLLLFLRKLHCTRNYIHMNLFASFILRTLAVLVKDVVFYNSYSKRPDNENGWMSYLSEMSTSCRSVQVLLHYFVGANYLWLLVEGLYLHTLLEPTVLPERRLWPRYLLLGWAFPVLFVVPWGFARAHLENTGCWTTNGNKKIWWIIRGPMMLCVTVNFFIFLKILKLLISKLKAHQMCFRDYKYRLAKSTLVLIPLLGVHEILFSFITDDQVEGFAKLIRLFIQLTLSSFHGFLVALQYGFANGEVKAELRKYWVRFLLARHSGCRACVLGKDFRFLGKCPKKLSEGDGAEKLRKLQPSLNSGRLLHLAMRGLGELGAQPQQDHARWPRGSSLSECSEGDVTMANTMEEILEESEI
Chain of CCR3 (P51677 whole entry): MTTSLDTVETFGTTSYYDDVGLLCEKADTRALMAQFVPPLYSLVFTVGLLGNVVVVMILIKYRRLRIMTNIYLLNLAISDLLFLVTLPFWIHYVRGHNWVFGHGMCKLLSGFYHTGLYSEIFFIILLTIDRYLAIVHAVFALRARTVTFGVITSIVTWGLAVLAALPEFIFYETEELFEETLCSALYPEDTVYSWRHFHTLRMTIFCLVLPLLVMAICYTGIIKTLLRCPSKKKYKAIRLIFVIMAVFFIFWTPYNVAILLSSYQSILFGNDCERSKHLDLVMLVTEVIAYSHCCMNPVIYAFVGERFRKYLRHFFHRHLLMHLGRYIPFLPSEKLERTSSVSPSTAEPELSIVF
Chain of CCR1 (P32246 whole entry): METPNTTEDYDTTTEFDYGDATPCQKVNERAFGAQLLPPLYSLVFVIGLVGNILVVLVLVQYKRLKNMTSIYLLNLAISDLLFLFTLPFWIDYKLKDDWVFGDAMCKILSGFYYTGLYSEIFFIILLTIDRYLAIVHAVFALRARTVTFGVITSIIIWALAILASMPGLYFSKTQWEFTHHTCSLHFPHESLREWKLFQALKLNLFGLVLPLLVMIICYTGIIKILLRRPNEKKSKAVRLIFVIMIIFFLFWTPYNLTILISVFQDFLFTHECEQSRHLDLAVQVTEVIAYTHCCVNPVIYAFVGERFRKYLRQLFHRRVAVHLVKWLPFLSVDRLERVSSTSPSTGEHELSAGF
Chain of DRD5 (P21918 whole entry): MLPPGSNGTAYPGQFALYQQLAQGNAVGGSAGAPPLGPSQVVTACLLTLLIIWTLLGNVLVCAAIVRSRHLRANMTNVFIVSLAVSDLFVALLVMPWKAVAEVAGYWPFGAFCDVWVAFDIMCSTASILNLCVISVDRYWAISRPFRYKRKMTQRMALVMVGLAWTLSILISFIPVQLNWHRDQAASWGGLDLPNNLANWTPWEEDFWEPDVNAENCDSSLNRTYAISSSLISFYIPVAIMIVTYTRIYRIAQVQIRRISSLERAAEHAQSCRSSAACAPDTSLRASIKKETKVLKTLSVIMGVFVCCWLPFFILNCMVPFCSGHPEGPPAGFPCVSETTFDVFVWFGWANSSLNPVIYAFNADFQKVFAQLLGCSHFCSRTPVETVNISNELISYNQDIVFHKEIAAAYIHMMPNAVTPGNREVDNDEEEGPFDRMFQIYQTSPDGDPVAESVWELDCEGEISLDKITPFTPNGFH
Chain of KISS1R (Q969F8 whole entry): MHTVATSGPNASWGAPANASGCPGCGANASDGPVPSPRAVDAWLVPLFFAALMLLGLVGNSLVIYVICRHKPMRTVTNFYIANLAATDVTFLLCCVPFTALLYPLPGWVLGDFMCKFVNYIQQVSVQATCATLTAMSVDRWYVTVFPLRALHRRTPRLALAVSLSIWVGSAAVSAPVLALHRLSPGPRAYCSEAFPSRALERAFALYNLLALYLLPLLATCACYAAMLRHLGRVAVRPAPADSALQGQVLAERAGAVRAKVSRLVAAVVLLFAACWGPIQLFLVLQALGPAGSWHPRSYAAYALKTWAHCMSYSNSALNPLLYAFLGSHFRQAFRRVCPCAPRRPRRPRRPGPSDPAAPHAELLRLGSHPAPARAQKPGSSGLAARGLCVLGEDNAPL
Chain of NTSR1 (P30989 whole entry): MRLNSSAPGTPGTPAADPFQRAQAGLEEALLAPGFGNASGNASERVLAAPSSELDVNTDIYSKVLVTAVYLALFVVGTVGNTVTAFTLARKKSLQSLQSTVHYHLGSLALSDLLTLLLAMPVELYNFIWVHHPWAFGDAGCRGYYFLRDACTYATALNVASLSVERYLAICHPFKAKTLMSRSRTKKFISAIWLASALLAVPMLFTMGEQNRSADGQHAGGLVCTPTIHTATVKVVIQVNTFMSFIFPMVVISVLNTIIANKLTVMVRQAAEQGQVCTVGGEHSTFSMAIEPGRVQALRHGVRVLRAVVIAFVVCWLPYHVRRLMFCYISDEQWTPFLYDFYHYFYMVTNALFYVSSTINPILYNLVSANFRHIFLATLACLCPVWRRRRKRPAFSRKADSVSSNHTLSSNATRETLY
Chain of PTGER4 (P35408 whole entry): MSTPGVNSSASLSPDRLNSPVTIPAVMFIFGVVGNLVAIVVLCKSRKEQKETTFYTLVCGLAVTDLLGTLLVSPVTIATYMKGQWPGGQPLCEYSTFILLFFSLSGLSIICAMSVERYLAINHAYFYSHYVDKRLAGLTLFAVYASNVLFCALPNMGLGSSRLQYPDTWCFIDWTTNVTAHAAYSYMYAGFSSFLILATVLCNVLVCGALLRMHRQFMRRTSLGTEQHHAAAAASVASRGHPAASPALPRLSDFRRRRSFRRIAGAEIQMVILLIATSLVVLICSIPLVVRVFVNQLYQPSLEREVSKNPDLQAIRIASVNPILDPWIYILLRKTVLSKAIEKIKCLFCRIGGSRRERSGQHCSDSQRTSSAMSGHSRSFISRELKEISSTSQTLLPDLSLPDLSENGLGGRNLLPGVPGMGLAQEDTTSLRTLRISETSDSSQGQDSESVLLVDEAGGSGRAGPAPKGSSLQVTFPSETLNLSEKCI
Chain of HCRTR1 (O43613 whole entry): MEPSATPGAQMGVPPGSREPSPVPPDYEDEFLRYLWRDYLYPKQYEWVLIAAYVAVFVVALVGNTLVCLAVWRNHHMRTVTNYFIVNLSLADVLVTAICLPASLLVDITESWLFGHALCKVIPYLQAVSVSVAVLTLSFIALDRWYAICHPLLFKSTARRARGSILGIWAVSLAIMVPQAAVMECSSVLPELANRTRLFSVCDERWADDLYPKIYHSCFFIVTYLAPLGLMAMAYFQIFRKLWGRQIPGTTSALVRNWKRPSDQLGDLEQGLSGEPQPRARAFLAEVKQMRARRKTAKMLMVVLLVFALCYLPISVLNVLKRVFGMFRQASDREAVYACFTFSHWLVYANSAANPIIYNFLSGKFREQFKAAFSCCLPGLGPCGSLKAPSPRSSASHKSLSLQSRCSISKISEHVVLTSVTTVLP
Chain of NPY1R (P25929 whole entry): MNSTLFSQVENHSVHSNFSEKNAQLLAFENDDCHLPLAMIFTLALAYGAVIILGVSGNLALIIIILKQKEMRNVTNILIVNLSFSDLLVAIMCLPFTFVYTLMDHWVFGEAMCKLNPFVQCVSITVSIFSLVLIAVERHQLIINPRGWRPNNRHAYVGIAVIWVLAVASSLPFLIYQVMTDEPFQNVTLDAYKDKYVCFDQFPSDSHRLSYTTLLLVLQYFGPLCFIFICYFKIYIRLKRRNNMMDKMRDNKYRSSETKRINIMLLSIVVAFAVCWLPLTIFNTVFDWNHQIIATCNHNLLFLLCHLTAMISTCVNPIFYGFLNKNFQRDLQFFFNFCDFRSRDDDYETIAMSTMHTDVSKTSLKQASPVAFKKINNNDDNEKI
Chain of CHRM4 (P08173 whole entry): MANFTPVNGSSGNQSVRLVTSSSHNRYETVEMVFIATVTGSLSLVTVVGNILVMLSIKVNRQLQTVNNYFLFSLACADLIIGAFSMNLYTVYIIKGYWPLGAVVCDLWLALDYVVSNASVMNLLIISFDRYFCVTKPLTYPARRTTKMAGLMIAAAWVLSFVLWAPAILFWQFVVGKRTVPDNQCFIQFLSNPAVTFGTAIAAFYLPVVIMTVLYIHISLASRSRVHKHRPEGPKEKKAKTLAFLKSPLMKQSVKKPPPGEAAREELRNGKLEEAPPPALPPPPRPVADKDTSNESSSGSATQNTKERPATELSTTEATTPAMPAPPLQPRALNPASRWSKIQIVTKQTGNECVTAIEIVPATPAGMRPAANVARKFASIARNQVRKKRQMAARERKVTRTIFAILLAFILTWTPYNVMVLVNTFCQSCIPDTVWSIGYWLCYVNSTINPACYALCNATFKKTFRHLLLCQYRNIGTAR

Cc1c(Cl)cccc1NC(=O)c1sc2nc3c(cc2c1N)C(=O)CCC3 [Compound 1]
GI50 (CNS:SF-539): 38.2 nM
GI50 (CNS:U251): 96.2 nM
GI50 (CO:HT29): 49 nM
GI50 (LE:RPMI-8226): 256 nM
GI50 (LE:SR): 74.2 nM
GI50 (LC:NCI-H226): 102 nM
GI50 (LC:NCI-H522): 22.9 nM
GI50 (OV:IGROV1): 196 nM
inhibition at 10 µM (ADCYAP1R1): 23%
inhibition at 10 µM (ADRA1B): 11%
inhibition at 10 µM (ADRB1): -27%
inhibition at 10 µM (ADRB2): -46%
inhibition at 10 µM (AGTR1): 7%
inhibition at 10 µM (C5AR1): 2%
inhibition at 10 µM (CCR1): -10%
inhibition at 10 µM (CCR3): -47%
inhibition at 10 µM (CHRM3): 14%
inhibition at 10 µM (CHRM4): -10%
inhibition at 10 µM (CXCR3): -19%
inhibition at 10 µM (DRD5): -31%
inhibition at 10 µM (EDG4): 7%
inhibition at 10 µM (EDG5): -1%
inhibition at 10 µM (GLP2R): 16%
inhibition at 10 µM (GPR109B): 7%
inhibition at 10 µM (HCRTR1): 13%
inhibition at 10 µM (HTR2A): -1%
inhibition at 10 µM (KISS1R): 5%
inhibition at 10 µM (MC5R): 20%
inhibition at 10 µM (MCHR1): -77%
inhibition at 10 µM (MLNR): -18%
inhibition at 10 µM (MRGPRX1): 6%
inhibition at 10 µM (NPBWR1): -14%
inhibition at 10 µM (NPY1R): 11%
inhibition at 10 µM (NTSR1): 12%
inhibition at 10 µM (P2RY2): -14%
inhibition at 10 µM (PTAFR): 2%
inhibition at 10 µM (PTGER3): 11%
inhibition at 10 µM (PTGER4): 7%
inhibition at 10 µM (PTGFR): -13%
inhibition at 10 µM (PTHR2): 7%
